Data reported in patent US10130684B2, “Oral dissolving films for insulin administration, for treating diabetes” (PHARMEDICA LTD., priority 2011, dated 2018).

Tested on: cultured human buccal tissue (EpiOral)
Experiment: In vitro buccal tissue permeation of insulin solutions with permeation enhancers
Type: in vitro ADME
Excerpt: To enable in vitro study of insulin release, the films were applied onto EpiOral tissues (MatTek) according to the Drug Absorption Protocol (ORL-202 & ORL-606), incorporated herein by reference. EpiOral tissues consist of normal, human-derived epithelial cells, which have been cultured to form multilayered, highly differentiated models of the human buccal phenotypes. EpiOral is a multilayered tissue consisting of an organized basal layer and multiple non-cornified layers analog to native human buccal tissue.
Insulin solution (0.60 mg/mL) was prepared in phosphate buffer (pH 6.8) solution (PBS). The above mentioned potential permeation enhancers were dissolved in the insulin solution to make solutions with desired ratios given in the table below:
Briefly, experiments were conducted in 37° C. incubator with 0.9 mL of PBS in receptor. 3.5 mL of donor solutions (n=4 for each formulation) were placed in the donor compartments. […] were collected from the receptor at time periods of 0.5, 1.0, 2.0, 3.0, 4.0 and 6.0 h, and were later assayed using HPLC.

## polyoxyethylene (35) lauryl ether [Brij 35]
Brij 35 as permeation enhancer
  increase of insulin release compared to the control (without a permeation enhancer): about 5 times
Brij 58, Brij 35, sodium glycocholate compared
  permeation effectiveness for insulin among the 3 tested compounds: highest permeation effectiveness
